In ChEMBL document CHEMBL1201862, “PubChem BioAssay data set” (2004):
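Compound exposure: 48 hours, 5 concentrations, 96-well plates. GI50: concentration for 50% inhibition of growth.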 The source made the active and inactive calls. Rule as the data show it: active = GI50 up to about 1.1 µM and inactive = higher.

What was measured:
Assay in all cases: NCI tumour cell line growth inhibition, 48 h
[1] = system: 786-0
[2] = system: A498
[3] = system: A549
[4] = system: ACHN
[5] = system: BT-549
[6] = system: CAKI-1
[7] = system: CCRF-CEM
[8] = system: COLO 205
[9] = system: DU-145
[10] = system: EKVX
[11] = system: HCC 2998
[12] = system: HCT-116
[13] = system: HCT-15
[14] = system: HL-60
[15] = system: HOP-62
[16] = system: HOP-92
[17] = system: HT-29
[18] = system: Hs-578T
[19] = system: IGROV-1
[20] = system: K562
[21] = system: KM12
[22] = system: LOX IMVI
[23] = system: M14
[24] = system: MCF7
[25] = system: MDA-MB-231
[26] = system: MDA-MB-435
[27] = system: MOLT-4
[28] = system: Malme-3M
[29] = system: NCI-H226
[30] = system: NCI-H23
[31] = system: NCI-H460
[32] = system: NCI-H522
[33] = system: NCI/ADR-RES
[34] = system: OVCAR-3
[35] = system: OVCAR-4
[36] = system: OVCAR-5
[37] = system: OVCAR-8
[38] = system: PC-3
[39] = system: RPMI-8226
[40] = system: RXF 393
[41] = system: SF-268
[42] = system: SF-295
[43] = system: SF-539
[44] = system: SK-MEL-2
[45] = system: SK-MEL-5
[46] = system: SK-OV-3
[47] = system: SN12C
[48] = system: SNB-19
[49] = system: SNB-75
[50] = system: SR
[51] = system: SW-620
[52] = system: T47D
[53] = system: TK-10
[54] = system: U-251
[55] = system: UACC-257
[56] = system: UACC-62
[57] = system: UO-31
[58] = system: MDA-N
[59] = system: SK-MEL-28

Question: `O=[N+]([O-])c1ccc(C2Nn3c(nnc3-c3cccc([N+](=O)[O-])c3)S2)cc1` (configuration not stated) was tested. Which GI50 [1] did it give?
Answer: > 100 µM (inactive)

Question: What about the GI50 [2] of the same compound?
Answer: > 100 µM (inactive)

Question: And the GI50 [3]?
Answer: > 100 µM (inactive)

Question: What about the GI50 [4] of the same compound?
Answer: > 100 µM (inactive)

Question: What about the GI50 [5] of the same compound?
Answer: > 100 µM (inactive)

Question: What about the GI50 [6] of the same compound?
Answer: > 100 µM (inactive)

Question: What about the GI50 [7] of the same compound?
Answer: 36.8 µM (inactive)

Question: And the GI50 [8]?
Answer: > 100 µM (inactive)

Question: What about the GI50 [9] of the same compound?
Answer: > 100 µM (inactive)

Question: And the GI50 [10]?
Answer: > 100 µM (inactive)

Question: And the GI50 [11]?
Answer: > 100 µM (inactive)

Question: And the GI50 [12]?
Answer: 67.6 µM (inactive)

Question: What about the GI50 [13] of the same compound?
Answer: > 100 µM

Question: And the GI50 [14]?
Answer: 89.3 µM (inactive)

Question: And the GI50 [15]?
Answer: > 100 µM (inactive)

Question: And the GI50 [16]?
Answer: > 100 µM (inactive)

Question: What about the GI50 [17] of the same compound?
Answer: > 100 µM (inactive)

Question: And the GI50 [18]?
Answer: > 100 µM (inactive)

Question: What about the GI50 [19] of the same compound?
Answer: > 100 µM (inactive)

Question: And the GI50 [20]?
Answer: 50 µM (inactive)

Question: And the GI50 [21]?
Answer: > 100 µM (inactive)

Question: What about the GI50 [22] of the same compound?
Answer: 82 µM (inactive)

Question: And the GI50 [23]?
Answer: > 100 µM (inactive)

Question: And the GI50 [24]?
Answer: 44.3 µM (inactive)

Question: What about the GI50 [25] of the same compound?
Answer: > 100 µM (inactive)

Question: What about the GI50 [26] of the same compound?
Answer: 51.5 µM (inactive)

Question: What about the GI50 [27] of the same compound?
Answer: 37.8 µM (inactive)

Question: And the GI50 [28]?
Answer: > 100 µM (inactive)

Question: And the GI50 [29]?
Answer: 0.0735 µM (active)

Question: And the GI50 [30]?
Answer: > 100 µM (inactive)

Question: And the GI50 [31]?
Answer: > 100 µM (inactive)

Question: What about the GI50 [32] of the same compound?
Answer: > 100 µM (inactive)

Question: What about the GI50 [33] of the same compound?
Answer: > 100 µM (inactive)

Question: What about the GI50 [34] of the same compound?
Answer: > 100 µM (inactive)

Question: And the GI50 [35]?
Answer: > 100 µM (inactive)

Question: And the GI50 [36]?
Answer: > 100 µM (inactive)

Question: What about the GI50 [37] of the same compound?
Answer: 92.3 µM (inactive)

Question: And the GI50 [38]?
Answer: > 100 µM (inactive)

Question: And the GI50 [39]?
Answer: 42.7 µM (inactive)

Question: What about the GI50 [40] of the same compound?
Answer: > 100 µM (inactive)

Question: What about the GI50 [41] of the same compound?
Answer: > 100 µM (inactive)

Question: What about the GI50 [42] of the same compound?
Answer: > 100 µM (inactive)

Question: And the GI50 [43]?
Answer: 9.08 µM (inactive)

Question: What about the GI50 [44] of the same compound?
Answer: 66.7 µM (inactive)

Question: And the GI50 [45]?
Answer: 53.6 µM (inactive)

Question: What about the GI50 [46] of the same compound?
Answer: > 100 µM (inactive)

Question: And the GI50 [47]?
Answer: > 100 µM (inactive)

Question: What about the GI50 [48] of the same compound?
Answer: > 100 µM (inactive)

Question: What about the GI50 [49] of the same compound?
Answer: > 100 µM (inactive)

Question: What about the GI50 [50] of the same compound?
Answer: 84.1 µM (inactive)

Question: And the GI50 [51]?
Answer: 71.9 µM (inactive)

Question: And the GI50 [52]?
Answer: 49.4 µM (inactive)

Question: And the GI50 [53]?
Answer: > 100 µM (inactive)

Question: What about the GI50 [54] of the same compound?
Answer: > 100 µM (inactive)

Question: And the GI50 [55]?
Answer: > 100 µM (inactive)

Question: And the GI50 [56]?
Answer: > 100 µM (inactive)

Question: And the GI50 [57]?
Answer: > 100 µM (inactive)

Question: `CC(=O)O[C@H]1C(=O)[C@]2(C)[C@@H](OC(=O)OCC(O)CO)C[C@H]3OC[C@@]3(OC(C)=O)[C@H]2[C@H](OC(=O)c2ccccc2)[C@]2(O)C[C@H](OC(=O)[C@H](O)[C@@H](NC(=O)c3ccccc3)c3ccccc3)C(C)=C1C2(C)C` (some centres not stated) [PACLITAXEL CERIBATE] was tested. Which GI50 [1] did it give?
Answer: < 0.01 µM (active)

Question: And the GI50 [3]?
Answer: < 0.01 µM (active)

Question: And the GI50 [4]?
Answer: 11.1 µM (inactive)

Question: What about the GI50 [5] of the same compound?
Answer: < 0.0147 µM (active)

Question: And the GI50 [6]?
Answer: 0.893 µM (active)

Question: What about the GI50 [7] of the same compound?
Answer: < 0.01 µM (active)

Question: What about the GI50 [8] of the same compound?
Answer: < 0.01 µM (active)

Question: And the GI50 [9]?
Answer: < 0.01 µM (active)

Question: And the GI50 [10]?
Answer: 0.0387 µM (active)

Question: And the GI50 [11]?
Answer: < 0.01 µM (active)

Question: And the GI50 [12]?
Answer: < 0.01 µM (active)

Question: And the GI50 [13]?
Answer: 0.143 µM

Question: And the GI50 [14]?
Answer: < 0.01 µM (active)

Question: And the GI50 [15]?
Answer: < 0.01 µM (active)

Question: And the GI50 [16]?
Answer: 22.4 µM (inactive)

Question: And the GI50 [17]?
Answer: < 0.01 µM (active)

Question: What about the GI50 [18] of the same compound?
Answer: < 0.01 µM (active)

Question: What about the GI50 [19] of the same compound?
Answer: < 0.01 µM (active)

Question: And the GI50 [20]?
Answer: < 0.01 µM (active)

Question: What about the GI50 [21] of the same compound?
Answer: < 0.01 µM (active)

Question: And the GI50 [22]?
Answer: < 0.01 µM (active)

Question: And the GI50 [23]?
Answer: < 0.01 µM (active)

Question: What about the GI50 [24] of the same compound?
Answer: < 0.01 µM (active)

Question: What about the GI50 [25] of the same compound?
Answer: < 0.01 µM (active)

Question: And the GI50 [26]?
Answer: < 0.01 µM (active)

Question: And the GI50 [58]?
Answer: < 0.01 µM (active)

Question: And the GI50 [27]?
Answer: < 0.01 µM (active)

Question: What about the GI50 [30] of the same compound?
Answer: < 0.01 µM (active)

Question: What about the GI50 [31] of the same compound?
Answer: < 0.01 µM (active)

Question: And the GI50 [32]?
Answer: < 0.01 µM (active)

Question: And the GI50 [33]?
Answer: 1.1 µM (active)

Question: What about the GI50 [34] of the same compound?
Answer: < 0.01 µM (active)

Question: What about the GI50 [35] of the same compound?
Answer: 17 µM (inactive)

Question: What about the GI50 [36] of the same compound?
Answer: < 0.01 µM (active)

Question: What about the GI50 [37] of the same compound?
Answer: < 0.01 µM (active)

Question: And the GI50 [38]?
Answer: < 0.01 µM (active)

Question: What about the GI50 [39] of the same compound?
Answer: < 0.01 µM (active)

Question: What about the GI50 [40] of the same compound?
Answer: < 0.01 µM (active)

Question: And the GI50 [41]?
Answer: < 0.01 µM (active)

Question: And the GI50 [42]?
Answer: < 0.01 µM (active)

Question: And the GI50 [43]?
Answer: < 0.01 µM (active)

Question: And the GI50 [59]?
Answer: 14.5 µM (inactive)

Question: What about the GI50 [44] of the same compound?
Answer: < 0.01 µM (active)

Question: And the GI50 [45]?
Answer: < 0.01 µM (active)

Question: What about the GI50 [46] of the same compound?
Answer: < 0.01 µM (active)

Question: What about the GI50 [47] of the same compound?
Answer: < 0.01 µM (active)

Question: What about the GI50 [48] of the same compound?
Answer: < 0.01 µM (active)

Question: And the GI50 [49]?
Answer: < 0.01 µM (active)

Question: What about the GI50 [50] of the same compound?
Answer: < 0.01 µM (active)

Question: And the GI50 [51]?
Answer: < 0.01 µM (active)

Question: And the GI50 [53]?
Answer: 0.0875 µM (active)

Question: And the GI50 [54]?
Answer: < 0.01 µM (active)

Question: What about the GI50 [55] of the same compound?
Answer: < 0.01 µM (active)

Question: And the GI50 [56]?
Answer: < 0.01 µM (active)

Question: What about the GI50 [57] of the same compound?
Answer: 0.601 µM (active)
